Measured values taken from the NIST ThermoML archive (doi:10.1016/j.jct.2009.07.013).
± gives the expanded uncertainty stated by the source.

Conditions: Liquid, Vibrating tube method

Cc1ccccc1 [toluene]
mass density [kg/m3]
Conditions | 298.15 K | 323.15 K | 348.15 K | 373.15 K | 398.15 K
100 kPa | 862 ± 0.2 | 838.7 ± 0.2 | 814.6 ± 0.2 | – | –
1000 kPa | 862.7 ± 0.2 | 839.5 ± 0.2 | 815.6 ± 0.2 | 791.1 ± 0.2 | 765.3 ± 0.2
5000 kPa | 865.7 ± 0.2 | 843.1 ± 0.2 | 819.8 ± 0.2 | 796 ± 0.2 | 771.3 ± 0.3
10000 kPa | 869.4 ± 0.2 | 847.4 ± 0.2 | 824.7 ± 0.3 | 801.8 ± 0.3 | 778.3 ± 0.3
15000 kPa | 873 ± 0.3 | 851.5 ± 0.3 | 829.5 ± 0.3 | 807.3 ± 0.3 | 784.7 ± 0.4
20000 kPa | 876.4 ± 0.3 | 855.4 ± 0.3 | 834 ± 0.3 | 812.5 ± 0.4 | 790.8 ± 0.4
30000 kPa | 882.9 ± 0.3 | 862.7 ± 0.4 | 842.4 ± 0.4 | 822 ± 0.4 | 801.6 ± 0.5
40000 kPa | 889 ± 0.4 | 869.5 ± 0.4 | 850 ± 0.5 | 830.6 ± 0.5 | 811.2 ± 0.6
45000 kPa | 891.9 ± 0.4 | 872.7 ± 0.4 | 853.6 ± 0.5 | 834.6 ± 0.5 | 815.7 ± 0.6
50000 kPa | 894.7 ± 0.4 | 875.9 ± 0.5 | 857.1 ± 0.5 | 838.4 ± 0.6 | 819.9 ± 0.6
60000 kPa | 900.2 ± 0.4 | 881.9 ± 0.5 | 863.8 ± 0.6 | 845.8 ± 0.6 | 828 ± 0.7

CC(C)CCCC(C)CCCC(C)CCCCC(C)CCCC(C)CCCC(C)C (stereo unspecified) [2,6,10,15,19,23-hexamethyltetracosane]
mass density [kg/m3]
Conditions | 298.15 K | 323.15 K | 348.15 K | 373.15 K | 398.15 K
100 kPa | 804.9 ± 0.2 | 789 ± 0.2 | 773 ± 0.2 | – | –
1000 kPa | 805.4 ± 0.2 | 789.6 ± 0.2 | 773.7 ± 0.2 | 758 ± 0.2 | 742.1 ± 0.2
5000 kPa | 807.8 ± 0.2 | 792.3 ± 0.2 | 776.7 ± 0.3 | 761.3 ± 0.3 | 745.9 ± 0.3
10000 kPa | 810.7 ± 0.3 | 795.5 ± 0.3 | 780.3 ± 0.3 | 765.3 ± 0.3 | 750.4 ± 0.3
15000 kPa | 813.4 ± 0.3 | 798.6 ± 0.3 | 783.7 ± 0.4 | 769.1 ± 0.4 | 754.6 ± 0.4
20000 kPa | 816.1 ± 0.4 | 801.5 ± 0.4 | 787 ± 0.4 | 772.7 ± 0.4 | 758.6 ± 0.4
30000 kPa | 821.2 ± 0.4 | 807.1 ± 0.5 | 793.2 ± 0.5 | 779.5 ± 0.5 | 766.1 ± 0.6
40000 kPa | 826 ± 0.5 | 812.3 ± 0.6 | 799 ± 0.6 | 785.8 ± 0.6 | 772.9 ± 0.7
45000 kPa | 828.3 ± 0.6 | 814.8 ± 0.6 | 801.7 ± 0.6 | 788.7 ± 0.7 | 776.1 ± 0.7
50000 kPa | 830.5 ± 0.6 | 817.2 ± 0.6 | 804.3 ± 0.7 | 791.6 ± 0.7 | 779.1 ± 0.7
60000 kPa | 834.8 ± 0.7 | 821.9 ± 0.7 | 809.3 ± 0.8 | 797.1 ± 0.8 | 785 ± 0.8
